The IC50 is the concentration at which inhibition is half-maximal.

For 27 compounds, IC50 results are on record in US11149018B2, “Substituted N-arylethyl-2-aminoquinoline-4-carboxamides and use thereof” (Bayer Aktiengesellschaft, priority 2017, dated 2021).

In the assay the target is FP receptor (Homo sapiens (Human), UniProt P43088). As to the kind of experiment: In vitro test of inhibition of human FP receptor activity (PGF2α-induced calcium flux in FP-expressing CHEM1 cells). It is filed as cell-based. The conditions noted are these: PGF2α 2 nM, some mean values of multiple determinations. The method, boiled down:
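FP antagonism in FP-expressing CHEM1 cells loaded with Fluo-8. Compound preincubated 10 min at 37° C, then receptor stimulated with 2 nM (final) PGF2α in calcium-free Tyrode with 2 mM CaCl2.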
In general terms: A change in cytosolic calcium serves as a functional read-out for many receptors and channels.

FP receptor, sequence (P43088 whole entry): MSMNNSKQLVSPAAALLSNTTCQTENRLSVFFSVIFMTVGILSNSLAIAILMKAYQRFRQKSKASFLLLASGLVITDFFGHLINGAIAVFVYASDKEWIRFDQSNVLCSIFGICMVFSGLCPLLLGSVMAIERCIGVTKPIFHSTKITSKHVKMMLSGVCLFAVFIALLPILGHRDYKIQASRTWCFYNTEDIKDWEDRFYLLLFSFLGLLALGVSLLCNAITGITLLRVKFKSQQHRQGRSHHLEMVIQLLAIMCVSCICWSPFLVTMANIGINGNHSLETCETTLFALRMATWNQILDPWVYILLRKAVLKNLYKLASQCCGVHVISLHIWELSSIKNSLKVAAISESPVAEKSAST

With `CCC1CCCN(c2nc3ccc(Br)cc3c(C(=O)NCC(CCC(=O)O)c3ccccc3Cl)c2C)C1` (racemic) [Example 57, (+/−)-5-[({6-Bromo-2-[3-ethylpiperidin-1-yl]-3-methylquinolin-4-yl}carbonyl)amino]-4-(2-chlorophenyl)pentanoic acid], the IC50 is 0.84 nM.

For `Cc1c(N2CCCCC2)nc2ccc(Br)cc2c1C(=O)NCC(CC(=O)O)c1c(F)cccc1Cl` (racemic) [Example 1, (+/−)-4-({[6-Bromo-3-methyl-2-(piperidin-1-yl)quinolin-4-yl]carbonyl}amino)-3-(2-chloro-6-fluorophenyl)butanoic acid], the IC50 came out at 26 nM.

Consider `Cc1c(N2CCCC(F)(F)C2)nc2ccc(Br)cc2c1C(=O)NCC(CCC(=O)O)c1c(F)cccc1C(F)(F)F` (single isomer, unassigned; (-)) [Example 167, (−)-5-({[6-Bromo-2-(3,3-difluoropiperidin-1-yl)-3-methylquinolin-4-yl]carbonyl}amino)-4-[2-fluoro-6-(trifluoromethyl)phenyl]pentanoic acid], for which the IC50 was 3.7 nM.

As for `Cc1c(N2CCCCC2)nc2ccc(Br)cc2c1C(=O)NCC(CCC(=O)O)c1c(Cl)ccc(Cl)c1Cl` (single isomer, unassigned; (+)) [Example 172, (+)-5-({[6-Bromo-3-methyl-2-(piperidin-1-yl)quinolin-4-yl]carbonyl}amino)-4-(2,3,6-trichlorophenyl)pentanoic acid], the IC50 came out at 41 nM.

Regarding `Cc1ccc(F)cc1C(CCC(=O)O)CNC(=O)c1c(C)c(N2CCCCC2)nc2ccc(Br)cc12` (single isomer, unassigned; (-)) [Example 148, (−)-5-({[6-Bromo-3-methyl-2-(piperidin-1-yl)quinolin-4-yl]carbonyl}amino)-4-(5-fluoro-2-methylphenyl)pentanoic acid], the IC50 was found to be 4.5 nM.

In the case of `Cc1ccc(F)cc1C(CCC(=O)O)CNC(=O)c1c(C)c(N2CCCC(F)(F)C2)nc2ccc(Br)cc12` (single isomer, unassigned; (+)) [Example 214, (+)-5-({[6-Bromo-2-(3,3-difluoropiperidin-1-yl)-3-methylquinolin-4-yl]carbonyl}amino)-4-(5-fluoro-2-methylphenyl)pentanoic acid], the IC50 turned out to be 21 nM.

For the compound `Cc1c(N2CCCC(F)C2)nc2ccc(Br)cc2c1C(=O)NCC(CCC(=O)O)c1ccccc1Cl` (single isomer, unassigned; (+)) [Example 187, (+)-5-[({6-Bromo-2-[3-fluoropiperidin-1-yl]-3-methylquinolin-4-yl}carbonyl)amino]-4-(2-chlorophenyl)pentanoic acid], the half-inhibitory concentration (IC50) was determined as 24 nM.

With `Cc1c(N2CCCC(F)C2)nc2ccc(Br)cc2c1C(=O)NCC(CCC(=O)O)c1c(Cl)ccc(Cl)c1Cl` (single isomer, unassigned) [Example 222, 5-[({6-Bromo-2-[3-fluoropiperidin-1-yl]-3-methylquinolin-4-yl}carbonyl)amino]-4-(2,3,6-trichlorophenyl)pentanoic acid], the IC50 stood at 3 nM.

With `COc1ccccc1C(CCC(=O)O)CNC(=O)c1c(C)c(N2CCCC2)nc2ccc(Br)cc12` (single isomer, unassigned; (-)) [Example 238, (−)-5-({[6-Bromo-3-methyl-2-(pyrrolidin-1-yl)quinolin-4-yl]carbonyl}amino)-4-(2-methoxyphenyl)pentanoic acid], the IC50 was determined as 44 nM.

Regarding `Cc1c(N2CCC[C@H]2C)nc2ccc(Br)cc2c1C(=O)NCC(CCC(=O)O)c1ccccc1Cl` (single isomer, unassigned; (+)) [Example 82], the IC50 worked out at 3.9 nM.

Take `Cc1c(N2CCC(C)CC2)nc2ccc(Br)cc2c1C(=O)NCC(CCC(=O)O)c1cc(F)ccc1Cl` (racemic) [Example 18, (+/−)-5-({[6-Bromo-3-methyl-2-(4-methylpiperidin-1-yl)quinolin-4-yl]carbonyl}amino)-4-(2-chloro-5-fluorophenyl)pentanoic acid]: the IC50 was 80 nM.

Consider `CCC1CCCN(c2nc3ccc(Br)cc3c(C(=O)NCC(CCC(=O)O)c3cc(F)ccc3F)c2C)C1` (single isomer, unassigned; (+)) [Example 228, (+)-5-[({6-Bromo-2-[3-ethylpiperidin-1-yl]-3-methylquinolin-4-yl}carbonyl)amino]-4-(2,5-difluorophenyl)pentanoic acid], for which the IC50 stood at 1.1 nM.

For the compound `Cc1c(N2CCC(F)(F)CC2)nc2ccc(Br)cc2c1C(=O)NCC(CCC(=O)O)c1cc(F)ccc1Cl` (racemic) [Example 8, (+/−)-5-({[6-Bromo-2-(4,4-difluoropiperidin-1-yl)-3-methylquinolin-4-yl]carbonyl}amino)-4-(2-chloro-5-fluorophenyl)pentanoic acid], the IC50 was 58 nM.

For the compound `Cc1c(N2CC=CCC2)nc2ccc(Br)cc2c1C(=O)NCC(CCC(=O)O)c1ccccc1Cl` (single isomer, unassigned) [Example 30, 5-({[6-Bromo-2-(3,6-dihydropyridin-1(2H)-yl)-3-methylquinolin-4-yl]carbonyl}amino)-4-(2-chlorophenyl)pentanoic acid], the IC50 turned out to be 8.7 nM.

For the compound `Cc1c(N2CCCC(F)(F)C2)nc2ccc(Br)cc2c1C(=O)NCC(CCC(=O)O)c1cc(F)ccc1F` (single isomer, unassigned; (+)) [Example 263, (+)-5-({[6-Bromo-2-(3,3-difluoropiperidin-1-yl)-3-methylquinolin-4-yl]carbonyl}amino)-4-(2,5-difluorophenyl)pentanoic acid], the IC50 was 28 nM.

As for `Cc1c(N2CCCC(C)C2)nc2ccc(Br)cc2c1C(=O)NCC(CCC(=O)O)c1ccccc1OC(F)(F)F` (single isomer, unassigned; (+)) [Example 212, (+)-5-[({6-Bromo-3-methyl-2-[3-methylpiperidin-1-yl]quinolin-4-yl}carbonyl)amino]-4-[2-(trifluoromethoxy)phenyl]pentanoic acid], the IC50 is 1.9 nM.

As to `CCC1CCCN(c2nc3ccc(Br)cc3c(C(=O)NCC(CCC(=O)O)c3ccccc3OC(F)(F)F)c2C)C1` (single isomer, unassigned; (+)) [Example 208, (+)-5-[({6-Bromo-2-[3-ethylpiperidin-1-yl]-3-methylquinolin-4-yl}carbonyl)amino]-4-[2-(trifluoromethoxy)phenyl]pentanoic acid], the IC50 was determined as 1.4 nM.

As for `COc1ccccc1C(CCC(=O)O)CNC(=O)c1c(C)c(N2CCCC(F)(F)C2)nc2ccc(Br)cc12` (single isomer, unassigned; (+)) [Example 289, (+)-5-({[6-Bromo-2-(3,3-difluoropiperidin-1-yl)-3-methylquinolin-4-yl]carbonyl}amino)-4-(2-methoxyphenyl)pentanoic acid], the IC50 worked out at 2.4 nM.

On to `Cc1ccccc1C(CCC(=O)O)CNC(=O)c1c(C)c(N2CCCC2)nc2ccc(Br)cc12` (single isomer, unassigned; (+)) [Example 233, (+)-5-({[6-Bromo-3-methyl-2-(pyrrolidin-1-yl)quinolin-4-yl]carbonyl}amino)-4-(2-methylphenyl)pentanoic acid], for which the IC50 was found to be 84 nM.

Turning to `Cc1c(N2CCCCC2)nc2ccc(Br)cc2c1C(=O)NCC(CCC(=O)O)c1ccccc1OC(F)(F)F` (racemic) [Example 126, (+/−)-5-({[6-Bromo-3-methyl-2-(piperidin-1-yl)quinolin-4-yl]carbonyl}amino)-4-[2-(trifluoromethoxy)phenyl]pentanoic acid], the IC50 came to 1.7 nM.

In the case of `Cc1c(N2CC3CCC(C3)C2)nc2ccc(Br)cc2c1C(=O)NCC(CCC(=O)O)c1ccccc1Cl` (racemic) [Example 74, (+/−)-5-[({2-[3-Azabicyclo[3.2.1]oct-3-yl]-6-bromo-3-methylquinolin-4-yl}carbonyl)amino]-4-(2-chlorophenyl)pentanoic acid], the IC50 was determined as 170 nM.

Turning to `Cc1c(N2CCCCCC2)nc2ccc(Br)cc2c1C(=O)NCC(CCC(=O)O)c1ccccc1OC(F)(F)F` (single isomer, unassigned; (+)) [Example 137, (+)-5-({[2-(Azepan-1-yl)-6-bromo-3-methylquinolin-4-yl]carbonyl}amino)-4-[2-(trifluoromethoxy)phenyl]pentanoic acid], the IC50 stood at 3.8 nM.

As for `Cc1c(N2C[C@@H](C)O[C@@H](C)C2)nc2ccc(Br)cc2c1C(=O)NCC(CCC(=O)O)c1cc(F)ccc1Cl` (mixture of isomers) [Example 12, (+/−)-5-[({6-Bromo-2-[cis-2,6-dimethylmorpholin-4-yl]-3-methylquinolin-4-yl}carbonyl)amino]-4-(2-chloro-5-fluorophenyl)pentanoic acid], the IC50 was 220 nM.

Turning to `Cc1c(N2CCCC(F)C2)nc2ccc(Br)cc2c1C(=O)NCC(CCC(=O)O)c1c(Cl)ccc(Cl)c1Cl` (single isomer, unassigned) [Example 223, 5-[({6-Bromo-2-[3-fluoropiperidin-1-yl]-3-methylquinolin-4-yl}carbonyl)amino]-4-(2,3,6-trichlorophenyl)pentanoic acid], the IC50 stood at 140 nM.

On to `Cc1c(N2CCCC(O)C2)nc2ccc(Br)cc2c1C(=O)NCC(CCC(=O)O)c1ccccc1Cl` (stereo not drawn) [Example 55, 5-[({6-Bromo-2-[3-hydroxypiperidin-1-yl]-3-methylquinolin-4-yl}carbonyl)amino]-4-(2-chlorophenyl)pentanoic acid], for which the IC50 was determined as 110 nM.

As for `Cc1c(N2CCCC(C)(C)C2)nc2ccc(Br)cc2c1C(=O)NCC(CCC(=O)O)c1ccccc1Cl` (single isomer, unassigned; (-)) [Example 43, (−)-5-({[6-Bromo-2-(3,3-dimethylpiperidin-1-yl)-3-methylquinolin-4-yl]carbonyl}amino)-4-(2-chlorophenyl)pentanoic acid], the IC50 amounted to 90 nM.

On to `[2H]C1([2H])N(c2nc3ccc(Br)cc3c(C(=O)NCC(CCC(=O)O)c3ccccc3C(F)(F)F)c2C)C([2H])([2H])C([2H])([2H])C1([2H])[2H]` (single isomer, unassigned; (-)) [Example 277, (−)-5-[({6-Bromo-3-methyl-2-[(^2H8)pyrrolidin-1-yl]quinolin-4-yl}carbonyl)amino]-4-[2-(trifluoromethyl)phenyl]pentanoic acid], for which the IC50 came out at 34 nM.
